Data published in patent US8586588B2, “Aryl pyridazinone derivatives and their use as H3 receptor ligands” (Cephalon, Inc., priority 2006, dated 2013).
Where a name gives a salt, the structure may show the parent alone. Read-outs that look alike come from different tables or passages of the source.

Legend:
[1] = molecular target: T1, rat histamine H3 receptor (Rattus norvegicus, UniProt Q9QYN8); test: Rat H3 radioligand binding ([3H]-N-alpha-methylhistamine, CHO-A3 cell membranes, SPA)
T1 construct: encoding the entire 445-amino-acid rat histamine H3 receptor; expressed in transfected cells
Outline: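 Scintillation proximity displacement of about 1 nM [3H]-N-alpha-methylhistamine, test compound 0.01 nM-30 μM, 4 h, room temperature, in the dark. Receptor source: rat H3 stably transfected into CHO-A3 cells, 10 μg membrane protein, Tris-HCl pH 7.4/MgCl2/BSA buffer. Nonspecific binding defined by 10 μM clobenpropit.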

[2] = molecular target: T2, human H3 receptor (Homo sapiens, UniProt Q9Y5N1); test: Human H3 radioligand binding ([3H]-N-alpha-methylhistamine, CHO cell membranes, SPA); details: binding constant as letter class
T2 construct: expressed in transfected cells
Outline: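 Scintillation proximity format: bead-proximal [3H]-N-alpha-methylhistamine (approximately 1 nM final) bound to human H3 receptor in CHO membranes was counted after 4 h at room temperature, light-protected. Buffer was pH 7.4 Tris/MgCl2/BSA; test compounds spanned 0.01 nM-30 μM; 10 μM clobenpropit set non-specific binding.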

[3] = Table A, binding constant as letter class, read-out: Rat H3 Ki
[4] = Table B, binding constant as letter class, read-out: rat H3 Ki

T1 sequence (Q9QYN8 whole entry): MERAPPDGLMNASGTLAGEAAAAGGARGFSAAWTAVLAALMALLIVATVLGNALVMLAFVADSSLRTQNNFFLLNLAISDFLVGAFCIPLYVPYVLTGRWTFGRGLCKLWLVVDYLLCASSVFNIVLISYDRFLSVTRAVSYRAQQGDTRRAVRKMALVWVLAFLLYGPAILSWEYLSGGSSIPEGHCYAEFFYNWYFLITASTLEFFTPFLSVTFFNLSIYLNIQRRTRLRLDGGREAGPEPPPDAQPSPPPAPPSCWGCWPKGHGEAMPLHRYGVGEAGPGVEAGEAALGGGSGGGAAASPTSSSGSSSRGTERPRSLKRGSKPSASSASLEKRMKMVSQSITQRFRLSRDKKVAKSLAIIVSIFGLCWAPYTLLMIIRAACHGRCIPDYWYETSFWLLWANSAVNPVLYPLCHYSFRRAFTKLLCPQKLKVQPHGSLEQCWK
T2 sequence (Q9Y5N1 whole entry): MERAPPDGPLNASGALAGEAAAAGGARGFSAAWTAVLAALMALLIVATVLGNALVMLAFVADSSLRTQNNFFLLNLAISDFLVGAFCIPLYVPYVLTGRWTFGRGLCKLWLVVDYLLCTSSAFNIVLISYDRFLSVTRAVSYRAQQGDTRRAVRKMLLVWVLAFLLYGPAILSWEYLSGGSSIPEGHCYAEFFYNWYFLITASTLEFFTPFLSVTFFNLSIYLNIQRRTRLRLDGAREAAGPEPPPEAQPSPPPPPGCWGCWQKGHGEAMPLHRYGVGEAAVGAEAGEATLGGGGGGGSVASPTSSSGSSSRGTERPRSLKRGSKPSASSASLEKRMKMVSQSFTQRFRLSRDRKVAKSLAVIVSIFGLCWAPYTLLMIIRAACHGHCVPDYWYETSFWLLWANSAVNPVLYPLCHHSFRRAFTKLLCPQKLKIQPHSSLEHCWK

Row | Compound | melting point | Ki ([2]; Table A) | Ki [1, 3] | Ki ([2]; Table B) | Ki [1, 4] | Ki [1]
1 | CC1CC(=O)NN=C1c1ccc(OC2CCN(C3CCC3)CC2)cc1 (racemic) [Example 189, 6-[4-(1-Cyclobutyl-piperidin-4-yloxy)-phenyl]-5-methyl-4,5-dihydro-2H-pyridazin-3-one] | 163 to 165 °C |  |  |  |  | 0.1 to 100 nM
2 | Cn1nc(-c2ccc(OCC3CCN(C(=O)OC(C)(C)C)CC3)cc2)c2ccccc2c1=O [Example 62, 4-[4-(3-Methyl-4-oxo-3,4-dihydro-phthalazin-1-yl)-phenoxymethyl]-piperidine-1-carboxylic acid tert-butyl ester] | 167 to 169 °C | > 1000 nM | > 1000 nM |  |  | 
3 | Cn1nc(-c2ccc(OCC3CCN(C(=O)OC(C)(C)C)CC3)cc2)ccc1=O [Example 65, 4-[4-(1-Methyl-6-oxo-1,6-dihydro-pyridazin-3-yl)-phenoxymethyl]-piperidine-1-carboxylic acid tert-butyl ester] | 164 to 166 °C | > 1000 nM | > 1000 nM |  |  | 
4 | Cn1nc(-c2ccc(OC3CCN(C4CCCC4)CC3)cc2)ccc1=O [Example 83, 6-[4-(1-Cyclopentyl-piperidin-4-yloxy)-phenyl]-2-methyl-2H-pyridazin-3-one] | 129 to 132 °C |  |  | 0.1 to 100 nM | 0.1 to 100 nM | 
5 | C[C@@H]1CCCN1CCCOc1c(F)cc(-c2ccc(=O)n(C)n2)cc1F [Example 84, 6-{3,5-Difluoro-4-[3-((R)-2-methyl-pyrrolidin-1-yl)-propoxy]-phenyl}-2-methyl-2H-pyridazin-3-one] | 175 to 178 °C |  |  | 0.1 to 100 nM | 0.1 to 100 nM | 
6 | Cc1cccc(-n2ncc(-c3ccc(OCCCN4CCC[C@H]4C)cc3)cc2=O)n1 [Example 98, 2-(6-Methyl-pyridin-2-yl)-5-{4-[3-((R)-2-methyl-pyrrolidin-1-yl)-propoxy]-phenyl}-2H-pyridazin-3-one] | 118 to 120 °C |  |  | 0.1 to 100 nM | 0.1 to 100 nM | 
7 | Cc1n[nH]c(=O)cc1-c1ccc(OC2CCNCC2)cc1.Cl [Example 102, 6-methyl-5-[4-(piperidin-4-yloxy)-phenyl]-2H-pyridazin-3-one] | 225 to 227 °C |  |  | > 1000 nM | > 1000 nM | 
8 | CC1=NNC(=O)CC1c1ccc(OC2CCN(C3CCC3)CC2)cc1 (centres unmarked) [Example 110, 5-[4-(1-Cyclobutyl-piperidin-4-yloxy)-phenyl]-6-methyl-4,5-dihydro-2H-pyridazin-3-one] | 178 to 179 °C |  |  | 0.1 to 100 nM | 0.1 to 100 nM | 
9 | O=C1CC(c2ccccn2)C(c2ccc(OC3CCN(C4CCC4)CC3)cc2)=NN1 (centres unmarked) [Example 114, 6-[4-(1-Cyclobutyl-piperidin-4-yloxy)-phenyl]-5-pyridin-2-yl-4,5-dihydro-2H-pyridazin-3-one] | 199 °C (dec.) |  |  | 0.1 to 100 nM | 0.1 to 100 nM | 
10 | O=c1cc(-c2ccccn2)c(-c2ccc(OC3CCN(C4CCC4)CC3)cc2)n[nH]1 [Example 115, 6-[4-(1-Cyclobutyl-piperidin-4-yloxy)-phenyl]-5-pyridin-2-yl-2H-pyridazin-3-one] | 203 °C (dec.) |  |  | 0.1 to 100 nM | 0.1 to 100 nM | 
11 | C[C@@H]1CCCN1CCCOc1ccc(-c2ccc(=O)[nH]n2)cc1C#N [Example 129, 2-[3-((R)-2-Methyl-pyrrolidin-1-yl)-propoxy]-5-(6-oxo-1,6-dihydro-pyridazin-3-yl)-benzonitrile] | > 200 °C (dec.) |  |  | 0.1 to 100 nM | 101 to 500 nM | 
12 | N#Cc1cc(-c2ccc(=O)[nH]n2)ccc1OCCCN1CCCCC1 [Example 130, 2-[3-(piperidin-1-yl)-propoxy]-5-(6-oxo-1,6-dihydro-pyridazin-3-yl)-benzonitrile] | 207 to 209 °C |  |  | 101 to 500 nM | 101 to 500 nM | 
13 | C[C@@H]1CCCN1CCCOc1ccc(-c2ccc(=O)n(CCO)n2)cc1 [Example 131, 2-(2-Hydroxy-ethyl)-6-{4-[3-((R)-2-methyl-pyrrolidin-1-yl)-propoxy]-phenyl}-2H-pyridazin-3-one] | 95 to 98 °C |  |  | 0.1 to 100 nM | 0.1 to 100 nM | 
14 | C[C@H](COc1ccc(-c2ccc(=O)[nH]n2)cc1)CN1CCC[C@H]1C [Example 132] | 163 to 167 °C |  |  | 0.1 to 100 nM | 0.1 to 100 nM | 
15 | O=c1[nH]nc(-c2ccc(OCCCN3CCCCC3)cc2)c2c1CCC2 [Example 133, 4-[4-(3-Piperidin-1-yl-propoxy)-phenyl]-2,5,6,7-tetrahydro-cyclopenta[d]pyridazin-1-one] | 134 °C (dec.) |  |  | 0.1 to 100 nM | 0.1 to 100 nM | 
16 | O=c1ccc(-c2ccc(OCCCN3CCCCC3)cc2)n[nH]1 [Example 134, 6-[4-(3-Piperidin-1-yl-propoxy)-phenyl]-2H-pyridazin-3-one] | 186 °C (dec.) |  |  | 0.1 to 100 nM | 0.1 to 100 nM | 
17 | COc1cc(-c2ccc(=O)[nH]n2)ccc1OCCCN1CCCCC1 [Example 135, 6-[3-Methoxy-4-(3-piperidin-1-yl-propoxy)-phenyl]-2H-pyridazin-3-one] | 175 °C (dec.) |  |  | 101 to 500 nM | 101 to 500 nM | 
18 | COc1cc(-c2ccc(=O)[nH]n2)ccc1OCCCN1CCC[C@H]1C [Example 136, 6-{3-Methoxy-4-[3-((R)-2-methyl-pyrrolidin-1-yl)-propoxy]-phenyl}-2H-pyridazin-3-one] | 148 °C (dec.) |  |  | 0.1 to 100 nM | 101 to 500 nM | 
19 | Cc1cc(OCCCN2CCCCC2)ccc1-c1ccc(=O)[nH]n1 [Example 137, 6-[2-Methyl-4-(3-piperidin-1-yl-propoxy)-phenyl]-2H-pyridazin-3-one] | 114 °C (dec.) |  |  | 0.1 to 100 nM | 0.1 to 100 nM | 
20 | CC(C)N1CCC(COc2ccc(-c3ccc(=O)[nH]n3)cn2)CC1 [Example 140, 6-[6-(1-Isopropyl-piperidin-4-ylmethoxy)-pyridin-3-yl]-2H-pyridazin-3-one] | 188 to 191 °C |  |  | 101 to 500 nM | 501 to 1000 nM | 
21 | C[C@H](COc1ccc(-c2cn[nH]c(=O)c2)cc1)CN1CCC[C@H]1C [Example 225, 5-{4-[(S)-2-Methyl-3-((R)-2-methyl-pyrrolidin-1-yl)-propoxy]-phenyl}-2H-pyridazin-3-one] | 154 to 156 °C |  |  |  |  | 0.1 to 100 nM
22 | C[C@@H](COc1ccc(-c2cn[nH]c(=O)c2)cc1)CN1CCC[C@H]1C [Example 226, 5-{4-[(R)-2-Methyl-3-((R)-2-methyl-pyrrolidin-1-yl)-propoxy]-phenyl}-2H-pyridazin-3-one] | 130 to 133 °C |  |  |  |  | 0.1 to 100 nM

Now from value to compound, other results behind:

Row | melting point | Ki ([2]; Table A) | Ki [1, 3] | Ki ([2]; Table B) | Ki [1, 4] | Compound | Ki [1]
23 | 161 to 163 °C |  |  |  |  | CC1CC(=O)NN=C1c1ccc(OCCCN2CCCC2)cc1 (racemic) (as salt: HCl) [Example 198, 5-Methyl-6-[4-(3-pyrrolidin-1-yl-propoxy)-phenyl]-4,5-dihydro-2H-pyridazin-3-one] | 
24 | 136 to 139 °C |  |  |  |  | C[C@@H]1CCCN1CCCOc1ccc(C2=NNC(=O)C3CC23)cc1 (mixture of isomers) (as salt: HCl) [Example 243, 5-{4-[3-((R)-2-Methyl-pyrrolidin-1-yl)-propoxy]-phenyl}-3,4-diaza-bicyclo[4.1.0]hept-4-en-2-one] | 
25 | 217 to 219 °C |  |  | 0.1 to 100 nM | 0.1 to 100 nM | O=c1ccc(-c2ccc(OC3CCN(C4CCC4)CC3)nc2)n[nH]1 [Example 141, 6-[6-(1-Cyclobutyl-piperidin-4-yloxy)-pyridin-3-yl]-2H-pyridazin-3-one] | 
26 | 195 to 197 °C |  |  | 0.1 to 100 nM | 101 to 500 nM | CC(C)N1CCC(Oc2ccc(-c3ccc(=O)[nH]n3)cn2)CC1 [Example 142, 6-[6-(1-Isopropyl-piperidin-4-yloxy)-pyridin-3-yl]-2H-pyridazin-3-one] | 
27 | 113 to 115 °C |  |  | 0.1 to 100 nM | 0.1 to 100 nM | CC(C)n1nc(-c2ccc(OC3CCN(C4CCC4)CC3)nc2)ccc1=O [Example 145, 6-[6-(1-Cyclobutyl-piperidin-4-yloxy)-pyridin-3-yl]-2-isopropyl-2H-pyridazin-3-one] | 
28 | 178 to 181 °C |  |  | 0.1 to 100 nM | 0.1 to 100 nM | C[C@@H]1CCCN1CCCOc1ccc(-c2ccc(=O)[nH]n2)cn1 [Example 146, 6-{6-[3-((R)-2-Methyl-pyrrolidin-1-yl)-propoxy]-pyridin-3-yl}-2H-pyridazin-3-one] | 
29 | 155 to 158 °C |  |  | 0.1 to 100 nM | 101 to 500 nM | O=c1ccc(-c2ccc(OCCCN3CCCCC3)nc2)n[nH]1 [Example 147, 6-[6-(3-Piperidin-1-yl-propoxy)-pyridin-3-yl]-2H-pyridazin-3-one] | 
30 | 196 to 198 °C |  |  | 0.1 to 100 nM | 0.1 to 100 nM | O=C1CCC(c2ccc(OC3CCN(C4CCC4)CC3)cc2)=NN1 [Example 150, 6-[4-(1-Cyclobutyl-piperidin-4-yloxy)-phenyl]-4,5-dihydro-2H-pyridazin-3-one] | 
31 | 195 to 197 °C |  |  | 0.1 to 100 nM | 0.1 to 100 nM | O=C1CCC(c2ccc(OC3CCN(C4CCC4)CC3)c(F)c2)=NN1 [Example 151, 6-[4-(1-Cyclobutyl-piperidin-4-yloxy)-3-fluoro-phenyl]-4,5-dihydro-2H-pyridazin-3-one] | 
32 | 157 to 158 °C |  |  | 0.1 to 100 nM | 0.1 to 100 nM | CC1(C)CC(c2ccc(OC3CCN(C4CCC4)CC3)cc2)=NNC1=O [Example 152, 6-[4-(1-Cyclobutyl-piperidin-4-yloxy)-phenyl]-4,4-dimethyl-4,5-dihydro-2H-pyridazin-3-one] | 
